Data taken from article PMC7504466, “In-Vitro and In-Silico Evaluations of Heterocyclic-Containing Diarylpentanoids as Bcl-2 Inhibitors Against LoVo Colorectal Cancer Cells” (Molecules, 2020).

What was measured:
[1] = tested on: normal human dermal fibroblasts (NHDF); experiment: MTT cytotoxicity assay, normal human dermal fibroblasts; assay type: cell-based; settings: 72 h post-treatment
Description: (§1) The in-vitro cytotoxic activity of the synthesized compounds on seven human CRC cell lines including KRAS (T84, SW620, LoVo) and BRAF (HT29, NCI-H508, RKO and LS411N) mutated cells were determined by MTT assay as previously described. The IC50 values obtained are summarized in Table 2 in which 5-FU and normal human dermal fibroblasts (NHDF) were used as controls. Meanwhile, a heatmap (Figure 3) was also generated using GraphPad Prism v7.0 (GraphPad Software, La Jolla, CA, USA) to visualize the cytotoxic trends of synthesized compounds graphically.
(§2) A panel of KRAS (T84, SW620 and LoVo) and BRAF (HT29, NCI-H508, RKO and LS411N) mutated human CRC cell lines were grown in Dulbecco’s modified Eagle’s medium (DMEM) containing 10% fetal bovine serum (FBS) and 1% penicillin/streptomycin at 37 °C under 5% CO2 while NHDF cells were cultured in DMEM with 5% FBS under the same condition. The culture medium was replenished every two days until the cells reached 80–90% confluency for further usage. All cell lines (T84, ATCC®CCL-248™; SW620, ATCC®CCL-227™; LoVo, ATCC®CCL-229™; HT-29, ATCC®HTB-38; NCI-H508, ATCC®CCL-253™; RKO, ATCC®CRL-2577; LS411N, ATCC®CRL-2159; NHDF, ATCC® PCS-201-010™) were purchased from American Type culture Collections (ATCC, Manassas, VA, USA).
(§3) LoVo cells (1.5–5 × 10^3 cells/well) were seeded into a 96 well plate and incubated at 37 °C and 5% CO2 atmosphere for 24 h. On the following day, the cell media were replaced with 100 µL of test compounds at various concentration. The final concentration of DMSO in the well is 0.1%. After 72 h of incubation, culture medium was removed and 100 µL of MTT (thiazoyl blue tertrazolium bromide) solution (0.5 mg/mL in culture media) was added. The resultant plates were then further incubated at 37 °C for 4 h. Upon completion, the MTT solution was removed and the formazan salts formed were dissolved in 100 µL of DMSO. The absorbance was recorded with a microplate reader at 570 nm. The IC50 values of tested compounds were calculated from three independent experiments.

[2] = tested on: LoVo cells; experiment: MTT cytotoxicity assay, LoVo cells; assay type: cell-based; settings: Homo sapiens, 72 h post-treatment, read-out: IC50 (µM) KRAS LoVo
Description: as §1, §2, §3

[3] = tested on: T84 cells; experiment: MTT cytotoxicity assay, T84 cells; assay type: cell-based; settings: Homo sapiens, 72 h post-treatment, read-out: IC50 (µM) KRAS T84
Description: as §1, §2, §3

[4] = tested on: human CRC cell lines (T84, SW620, LoVo, HT29, NCI-H508, RKO, LS411N); experiment: MTT cytotoxicity assay, panel of KRAS- and BRAF-mutated CRC cell lines; assay type: cell-based; settings: several CRC cell lines, read-out: IC50 against several CRC cell lines
Description: as §1
A panel of KRAS (T84, SW620 and LoVo) and BRAF (HT29, NCI-H508, RKO and LS411N) mutated human CRC cell lines were grown in Dulbecco’s modified Eagle’s medium (DMEM) containing 10% fetal bovine serum (FBS) and 1% penicillin/streptomycin at 37 °C under 5% CO2 while NHDF cells were cultured in DMEM with 5% FBS under the same condition. The culture medium was replenished every two days until the cells reached 80–90% confluency for further usage. […]
LoVo cells (1.5–5 × 10^3 cells/well) were seeded into a 96 well plate and incubated at 37 °C and 5% CO2 atmosphere for 24 h. […] The absorbance was recorded with a microplate reader at 570 nm. The IC50 values of tested compounds were calculated from three independent experiments.

[5] = tested on: SW620 cells; experiment: MTT cytotoxicity assay, SW620 cells; assay type: cell-based; settings: Homo sapiens, SW-620, 72 h post-treatment, read-out: IC50 (µM) KRAS SW620
Description: as §1, §2, §3

[6] = tested on: HT29 cells; experiment: MTT cytotoxicity assay, HT29 cells; assay type: cell-based; settings: Homo sapiens, HT-29, 72 h post-treatment, read-out: IC50 (µM) BRAF HT29
Description: as §1, §2, §3

[7] = tested on: RKO cells; experiment: MTT cytotoxicity assay, RKO cells; assay type: cell-based; settings: Homo sapiens, 72 h post-treatment, read-out: IC50 (µM) BRAF RKO
Description: as §1, §2, §3

[8] = tested on: NCI-H508 cells; experiment: MTT cytotoxicity assay, NCI-H508 cells; assay type: cell-based; settings: Homo sapiens, 72 h post-treatment, read-out: IC50 (µM) BRAF NCI-H508
Description: as §1, §2, §3

[9] = tested on: LS411N cells; experiment: MTT cytotoxicity assay, LS411N cells; assay type: cell-based; settings: Homo sapiens, LS-411N, 72 h post-treatment, read-out: IC50 (µM) BRAF LS411N
Description: as §1, §2, §3

| melting point [°C] | Compound | IC50 [1] [µM] | IC50 [2] [µM] | IC50 [3] [µM] | IC50 [4] [µM] | IC50 [5] [µM] | IC50 [6] [µM] | IC50 [7] [µM] | IC50 [8] [µM] | IC50 [9] [µM] |
| --- | --- | --- | --- | --- | --- | --- | --- | --- | --- | --- |
|  | O=C1C(=Cc2ccc(F)c(F)c2)CSCC1=Cc1ccc(F)c(F)c1 [Compound 2f, 3,5-Bis(3,4-difluorobenzylidene)tetrahydro-4H-thiopyran-4-one] | 2 | 5.1 | > 10 | 2.4 to 6.2 | 2.9 | > 10 | 2.4 | 6.2 | 5.9 |
| 90 to 91 | O=C1C(=Cc2ccc(F)c(F)c2)CCCC1=Cc1ccc(F)c(F)c1 [Compound 2c, 2,6-Bis(3,4-difluorobenzylidene)cyclohexanone] | 12.9 | 3.3 | 3.3 |  | 3.2 | 5.4 | 2.6 | 3.3 | 3.7 |
| 120 to 121 | COc1ccccc1C=C1CSCC(=Cc2ccccc2OC)C1=O [Compound 2d, 3,5-Bis(2-methoxybenzylidene)tetrahydro-4H-thiopyran-4-one] | 9.7 | 6.9 | > 10 |  | > 10 | > 10 | 7.1 | 5.3 | 5.8 |
|  | O=C1C(=Cc2ccccc2Br)CCCC1=Cc1ccccc1Br [Compound 2b, 2,6-Bis(2-bromobenzylidene)cyclohexanone] | > 20 | > 10 | > 10 |  | 8.9 | > 10 | > 10 | 7.8 | > 10 |
|  | O=c1[nH]cc(F)c(=O)[nH]1 [Compound 5-FU, 5-fluorouracil, reference compound] | > 20 | 3.3 | > 10 |  | > 10 | > 10 | 2.9 | 8.6 | 4.6 |
|  | COc1ccccc1C=C1CCCC(=Cc2ccccc2OC)C1=O [Compound 2a, 2,6-Bis(2-methoxybenzylidene)cyclohexanone] | > 20 | > 10 | > 10 |  | > 10 | > 10 | > 10 | > 10 | > 10 |
